The values below come from patent US7410963B2, “Benzo-1,4-diazepin-2-one derivatives as phosphodiesterase PDE2 inhibitors, preparation and therapeutic use thereof” (VIA Pharmaceuticals, Inc., priority 2003, dated 2008).

Where two headings read alike, the source gives them in different places.

One assay addresses T1, PDE2 (Bos taurus, UniProt P14099).
T1 sequence (P14099 1-921): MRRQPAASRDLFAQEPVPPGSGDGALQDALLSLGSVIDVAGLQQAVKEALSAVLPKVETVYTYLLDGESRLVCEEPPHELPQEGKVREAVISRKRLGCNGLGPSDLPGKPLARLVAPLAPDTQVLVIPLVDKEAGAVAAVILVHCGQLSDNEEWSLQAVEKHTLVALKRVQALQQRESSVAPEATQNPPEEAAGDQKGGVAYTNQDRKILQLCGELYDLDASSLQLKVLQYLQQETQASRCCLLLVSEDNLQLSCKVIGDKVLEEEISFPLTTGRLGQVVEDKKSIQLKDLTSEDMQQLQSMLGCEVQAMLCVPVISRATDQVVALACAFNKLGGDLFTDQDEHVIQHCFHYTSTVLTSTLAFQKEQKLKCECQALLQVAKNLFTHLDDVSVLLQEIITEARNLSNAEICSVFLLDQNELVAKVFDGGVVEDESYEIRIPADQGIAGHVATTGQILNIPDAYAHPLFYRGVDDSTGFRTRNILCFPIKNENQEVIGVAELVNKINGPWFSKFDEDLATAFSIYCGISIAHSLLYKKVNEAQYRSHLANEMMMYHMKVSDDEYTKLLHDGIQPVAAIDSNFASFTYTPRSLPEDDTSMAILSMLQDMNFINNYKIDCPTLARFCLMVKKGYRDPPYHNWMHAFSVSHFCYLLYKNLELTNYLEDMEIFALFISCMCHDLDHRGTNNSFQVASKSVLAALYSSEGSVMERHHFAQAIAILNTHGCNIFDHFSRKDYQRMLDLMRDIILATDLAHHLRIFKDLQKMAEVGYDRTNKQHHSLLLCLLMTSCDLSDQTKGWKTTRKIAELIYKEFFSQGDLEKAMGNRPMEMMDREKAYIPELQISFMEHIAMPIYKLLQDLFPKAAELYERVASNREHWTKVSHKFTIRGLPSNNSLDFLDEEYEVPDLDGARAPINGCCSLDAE
Description: Radioenzymatic phosphodiesterase assay: PDE2 inhibition. The class given is biochemical, bovine. Conditions: read-out: PDE2 percentage of inhibition at 10 μM. As for the experimental part:
Nucleoside radioactivity was determined by liquid scintillation.

The subject of another assay is PDE3. Nature of the assay: Radioenzymatic phosphodiesterase assay: PDE3 inhibition (selectivity). The settings on record: Table 2; 10 μM test compound; PDE3 of vascular smooth muscle.
A further assay deals with PDE4. Description: Radioenzymatic phosphodiesterase assay: PDE4 inhibition (selectivity). Conditions: Table 2, PDE4 of vascular smooth muscle; for PDE4 percentage of inhibition at 10 μM: 10 μM test compound.

Description for PDE3: (§1) 3 g of tunica media from bovine aorta was cut in small piece and homogenized in a glass potter with 7 volumes/weight of buffer A containing protease inhibitors cocktails (20 mM Tris-HCl, 0.25 M saccharose, 2 mM magnesium acetate, 1 mM dithiothreitol, 5 mM EGTA, 2000 U/ml aprotinine, 10 mg/l leupeptine, 10 mg/l of soybean chemotrypsin inhibitor). The homogenate was centrifuged at 875000 g for 1 h and the surpernant was then transferred in DEAE-Sephacel (15×1.6 cm). The column was equilibrated beforehand with a buffer B (buffer A without saccharose, d'EGTA and protease inhibitors). […] Fractions were aliquoted and stored at −80° C. until further use.
(§2) The monophosphated adenosine or guanosine released by the hydrolysis of tritiated cyclic nucleotides was transformed into tritiated adenosine or guanosine by excess of nucleotidase. The obtained nucleoside was separated from nucleotides by anion exchange chromatography. Nucleoside radioactivity was determined by liquid scintillation.
(§3) The phosphodiesterase inhibitory activity of compounds was evaluated on other isoforms of phosphodiesterases such as PDE3, and PDE4 of vascular smooth muscle.
Description for PDE4: as §1, §2, §3

Take `COc1ccccc1-c1cc2c(cc1OC)N(C)C(=O)CN=C2c1cccc(C(N)=O)c1` [Example 21, 3-[8-Methoxy-7-(2-methoxy-phenyl)-1-methyl-2-oxo-2,3-dihydro-1H-benzo[e][1,4]diazepin-5-yl]-benzamide]: the inhibition at 10 µM on PDE2 (Table 1, 10 μM test compound) turned out to be 98%. In the assay on PDE3, the “PDE3 percentage of inhibition at 10 μM” value is given as 9%. Moreover, the “PDE4 percentage of inhibition at 10 μM” value in the assay on PDE4 was 18%.

On to `COc1ccc(-c2cc3c(cc2OC)N(C)C(=O)CN=C3c2cccc(C(N)=O)c2)cc1` [Example 22, 3-[8-Methoxy-7-(4-methoxy-phenyl)-1-methyl-2-oxo-2,3-dihydro-1H-benzo[e][1,4]diazepin-5-yl]-benzamide], for which the inhibition at 10 µM on PDE2 (Table 1, 10 μM test compound) amounted to 99%. The “PDE3 percentage of inhibition at 10 μM” value with PDE3 is recorded as 22%. The “PDE4 percentage of inhibition at 10 μM” value in the assay on PDE4 was determined as 50%.

For the compound `COc1cc2c(cc1-c1ccccc1Cl)C(c1cccc(C(N)=O)c1)=NCC(=O)N2C` [Example 23, 3-[7-(2-Chloro-phenyl)-8-methoxy-1-methyl-2-oxo-2,3-dihydro-1H-benzo[e][1,4]diazepin-5-yl]-benzamide], the inhibition at 10 µM at PDE2 (Table 1, 10 μM test compound) amounted to 95%. Moreover, the “PDE3 percentage of inhibition at 10 μM” value with PDE3 was 25%. For the same compound, in the assay with PDE4, the “PDE4 percentage of inhibition at 10 μM” value was 20%.

With `COc1ccc(OC)c(-c2ccc3c(c2)C(c2cccc(C(N)=O)c2)=NCC(=O)N3C)c1` [Example 31, 3-[7-(2,5-Dimethoxy-phenyl)-1-methyl-2-oxo-2,3-dihydro-1H-benzo[e][1,4]diazepin-5-yl]-benzamide], on PDE2 (Table 1, 10 μM test compound), the inhibition at 10 µM was 99%. In addition, the “PDE3 percentage of inhibition at 10 μM” value in the assay on PDE3 is listed as 0%. Also, the “PDE4 percentage of inhibition at 10 μM” value in the assay with PDE4 was found to be 25%.

In the case of `COc1cccc(OC)c1-c1ccc2c(c1)C(c1cccc(C(N)=O)c1)=NCC(=O)N2C` [Example 32, 3-[7-(2,6-Dimethoxy-phenyl)-1-methyl-2-oxo-2,3-dihydro-1H-benzo[e][1,4]diazepin-5-yl]-benzamide], the inhibition at 10 µM at PDE2 (Table 1, 10 μM test compound) was 100%. In addition, the “PDE3 percentage of inhibition at 10 μM” value with PDE3 is recorded as 0%. In addition, the “PDE4 percentage of inhibition at 10 μM” value in the assay with PDE4 is on record as 27%.

For `COc1ccc(C2=NCC(=O)N(C)c3ccc(-c4c(OC)cccc4OC)cc32)cc1` [Example 75, 7-(2,6-Dimethoxy-phenyl)-5-(4-methoxy-phenyl)-1-methyl-1,3-dihydro-benzo[e][1,4]diazepin-2-one], the inhibition at 10 µM at PDE2 (Table 1, 10 μM test compound) came out at 99%. In the assay with PDE3, the “PDE3 percentage of inhibition at 10 μM” value was determined as 4%. For the same compound, the “PDE4 percentage of inhibition at 10 μM” value with PDE4 is on record as 78%.

Consider `COc1cc2c(cc1-c1c(OC)cccc1OC)C(c1cccc(C(N)=O)c1)=NCC(=O)N2C` [Example 92, 3-[7-(2,6-Dimethoxy-phenyl)-8-methoxy-1-methyl-2-oxo-2,3-dihydro-1H-benzo[e][1,4]diazepin-5-yl]-benzamide], for which the inhibition at 10 µM at PDE2 (Table 1, 10 μM test compound) is 97%. For the same compound, in the assay on PDE3, the “PDE3 percentage of inhibition at 10 μM” value is recorded as 52%. For the same compound, the “PDE4 percentage of inhibition at 10 μM” value with PDE4 worked out at 23%.

As for `COc1cc2c(cc1-c1ccccc1Oc1ccccc1)C(c1cccc(C(N)=O)c1)=NCC(=O)N2C` [Example 93, 3-[8-Methoxy-1-methyl-2-oxo-7-(2-phenoxy-phenyl)-2,3-dihydro-1H-benzo[e][1,4]diazepin-5-yl]-benzamide], the inhibition at 10 µM at PDE2 (Table 1, 10 μM test compound) was found to be 98%. Moreover, in the assay on PDE3, the “PDE3 percentage of inhibition at 10 μM” value amounted to 72%. Further, in the assay with PDE4, the “PDE4 percentage of inhibition at 10 μM” value was found to be 56%.

Take `COc1cccc(OC)c1-c1ccc2c(c1)C(c1ccc(F)cc1)=NCC(=O)N2C` [Example 100, 7-(2,6-Dimethoxy-phenyl)-5-(4-fluoro-phenyl)-1-methyl-1,3-dihydro-benzo[e][1,4]diazepin-2-one]: the inhibition at 10 µM at PDE2 worked out at 96%. The “PDE3 percentage of inhibition at 10 μM” value in the assay on PDE3 was found to be 0%. In the assay with PDE4, the “PDE4 percentage of inhibition at 10 μM” value amounted to 77%.

Regarding `COCCCc1cccc(C2=NCC(=O)N(C)c3cc(OC)c(-c4ccccc4)cc32)c1` [Example 103, 8-Methoxy-5-[3-(3-methoxy-propyl)-phenyl]-1-methyl-7-phenyl-1,3-dihydro-benzo[e][1,4]diazepin-2-one], the inhibition at 10 µM on PDE2 (Table 1, 10 μM test compound) came to 96%.

On to `COc1cc2c(cc1-c1ccccc1)C(c1ccccc1Br)=NCC(=O)N2C` [Example 104, 5-(2-Bromo-phenyl)-8-methoxy-1-methyl-7-phenyl-1,3-dihydro-benzo[e][1,4]diazepin-2-one], for which the inhibition at 10 µM at PDE2 (Table 1, 10 μM test compound) was determined as 71%.

For the compound `CCCCC#Cc1ccc(C2=NCC(=O)N(C)c3cc(OC)c(-c4ccccc4)cc32)cc1` [Example 105, 5-(4-Hex-1-ynyl-phenyl)-8-methoxy-1-methyl-7-phenyl-1,3-dihydro-benzo[e][1,4]diazepin-2-one], the inhibition at 10 µM on PDE2 was 42%.

As for `COCCCc1ccc(C2=NCC(=O)N(C)c3cc(OC)c(-c4ccccc4)cc32)cc1` [Example 106, 8-Methoxy-5-[4-(3-methoxy-propyl)-phenyl]-1-methyl-7-phenyl-1,3-dihydro-benzo[e][1,4]diazepin-2-one], the inhibition at 10 µM at PDE2 was found to be 47%.

For `COc1cc2c(cc1-c1ccccc1)C(c1ccc(CCCNC(=O)OC(C)(C)C)cc1)=NCC(=O)N2C` [Example 107, {3-[4-(8-Methoxy-1-methyl-2-oxo-7-phenyl-2,3-dihydro-1H-benzo[e][1,4]diazepin-5-yl)-phenyl]-propyl}-carbamic acid tert-butyl ester], the inhibition at 10 µM at PDE2 was determined as 92%.

As to `COc1ccc(C2=NCC(=O)N(C)c3cc(OC)c(-c4ccccc4OC)cc32)cc1` [Example 108, 8-Methoxy-5-(4-methoxy-phenyl)-7-(2-methoxy-phenyl)-1-methyl-1,3-dihydro-benzo[e][1,4]diazepin-2-one], the inhibition at 10 µM at PDE2 is 99%.

As to `COc1ccc(C2=NCC(=O)N(C)c3cc(OC)c(-c4c(OC)cccc4OC)cc32)cc1` [Example 109, 7-(2,6-Dimethoxy-phenyl)-8-methoxy-5-(4-methoxy-phenyl)-1-methyl-1,3-dihydro-benzo[e][1,4]diazepin-2-one], at PDE2 (Table 1, 10 μM test compound), the inhibition at 10 µM stood at 99%. Besides, the “PDE3 percentage of inhibition at 10 μM” value in the assay on PDE3 stood at 37%. For the same compound, in the assay with PDE4, the “PDE4 percentage of inhibition at 10 μM” value stood at 90%. In addition, the IC50 on PDE4 (read-out: PDE4 IC50) stood at 1000 nM.

Regarding `COc1ccc(C2=NCC(=O)N(C)c3cc(OC)c(-c4cc(OC)ccc4OC)cc32)cc1` [Example 110, 7-(2,5-Dimethoxy-phenyl)-8-methoxy-5-(4-methoxy-phenyl)-1-methyl-1,3-dihydro-benzo[e][1,4]diazepin-2-one], the inhibition at 10 µM on PDE2 worked out at 99%.

In the case of `COc1ccc(C2=NCC(=O)N(C)c3cc(OC)c(-c4c(F)cccc4OC)cc32)cc1` [Example 111, 7-(2-Fluoro-6-methoxy-phenyl)-8-methoxy-5-(4-methoxy-phenyl)-1-methyl-1,3-dihydro-benzo[e][1,4]diazepin-2-one], on PDE2, the inhibition at 10 µM was 99%.

With `COc1ccc(C2=NCC(=O)N(C)c3cc(OC)c(-c4ccccc4Oc4ccccc4)cc32)cc1` [Example 112, 8-Methoxy-5-(4-methoxy-phenyl)-1-methyl-7-(2-phenoxy-phenyl)-1,3-dihydro-benzo[e][1,4]diazepin-2-one], at PDE2, the inhibition at 10 µM turned out to be 99%.

As to `COc1cc2c(cc1-c1ccccc1)C(c1ccc(Br)cc1)=NCC(=O)N2C` [Example 113, 5-(4-Bromo-phenyl)-8-methoxy-1-methyl-7-phenyl-1,3-dihydro-benzo[e][1,4]diazepin-2-one], the inhibition at 10 µM at PDE2 (Table 1, 10 μM test compound) came out at 94%.

Turning to `COc1cc2c(cc1-c1ccccc1)C(c1ccc(Br)cc1)=NCC(=O)N2` [Example 114, 5-(4-Bromo-phenyl)-8-methoxy-7-phenyl-1,3-dihydro-benzo[e][1,4]diazepin-2-one], at PDE2 (Table 1, 10 μM test compound), the inhibition at 10 µM turned out to be 72%.

`COc1cccc(OC)c1-c1ccc2c(c1)C(c1cccc(C)c1)=NCC(=O)N2C` [Example 115, 7-(2,6-Dimethoxy-phenyl)-1-methyl-5-m-tolyl-1,3-dihydro-benzo[e][1,4]diazepin-2-one]: on PDE2, the inhibition at 10 µM worked out at 96%. In addition, the “PDE3 percentage of inhibition at 10 μM” value in the assay on PDE3 was 3%. Besides, in the assay on PDE4, the “PDE4 percentage of inhibition at 10 μM” value is 42%.

The inhibition is how much of the control response was suppressed. Broadly, the IC50 is the concentration at which inhibition is half-maximal.
